By Kd is commonly meant the concentration at which binding is half-saturated. A word on the IC50: it is the concentration at which inhibition is half-maximal. In general, stoichiometry N refers to a count of units in the complex or per binding partner.

This note sets out measurements from paper PMC11084299 (International Journal of Molecular Sciences, 2024).

In data set [1] the target is T1, Plasmodium falciparum tyrosyl-tRNA synthetase (PfTyrRS) (Plasmodium falciparum, UniProt Q8IAR7).
T1 construct: gene PF3D7_0807900; recombinant PfTyrRS (PF3D7-0807900), C-terminal 10 × His tag, ~47 kDa, homodimer
Put plainly: bio-layer interferometry (Ni-NTA biosensors, immobilized PfTyrRS); supported by ATP hydrolysis inhibition (IC50 […]), TSA and limited proteolysis. The format is binding. For orientation: Biolayer interferometry detects binding as a change in optical thickness at a sensor tip.

For data set [2], the target named is T2, Homo sapiens tyrosyl-tRNA synthetase (HsTyrRS) (Homo sapiens, UniProt P54577).
T2 construct: gene YARS1; recombinant HsTyrRS, C-terminal 10 × His tag, ~64 kDa, homodimer
T2 sequence (P54577 1-528): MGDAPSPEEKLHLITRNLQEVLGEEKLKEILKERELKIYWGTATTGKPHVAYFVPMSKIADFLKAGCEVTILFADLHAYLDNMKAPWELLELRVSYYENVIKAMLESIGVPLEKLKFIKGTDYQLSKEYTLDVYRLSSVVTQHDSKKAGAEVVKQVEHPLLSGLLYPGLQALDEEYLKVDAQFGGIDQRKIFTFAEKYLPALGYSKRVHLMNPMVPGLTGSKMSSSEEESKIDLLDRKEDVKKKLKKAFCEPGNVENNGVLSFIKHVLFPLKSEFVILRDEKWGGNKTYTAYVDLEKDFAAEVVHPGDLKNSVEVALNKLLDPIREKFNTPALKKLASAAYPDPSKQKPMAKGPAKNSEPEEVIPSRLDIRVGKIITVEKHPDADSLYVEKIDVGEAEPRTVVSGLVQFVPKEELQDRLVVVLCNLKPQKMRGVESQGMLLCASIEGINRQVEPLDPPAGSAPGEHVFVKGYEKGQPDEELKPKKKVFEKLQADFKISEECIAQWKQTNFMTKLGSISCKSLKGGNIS
Put plainly: ATP hydrolysis (consumption) assay, luciferin/luciferase luminescence, purified enzyme. The format is biochemical.

Data set [3] deals with the molecule itself. As to the kind of experiment: SEC; Superdex 200 Increase 10/300 GL, final purification step; oligomeric state from the apparent molecular weight at the elution volume. Background: SEC sorts molecules by how far they enter the pores of the column.

`O=C(/C=C/c1ccc(O)c(O)c1)c1ccc(O)c(O)c1O` [okanin]: the Kd in data set [1] was 290 nM. This molecule also displayed an IC50 in data set [2] of 38.2 ± 2.71 µM.

B1: Plasmodium falciparum tyrosyl-tRNA synthetase (enzyme, UniProt Q8IAR7 1-373, looked up)
chain: METTDTKREEQEIEEKKAQEESKIEDVDKILNDILSISSECIQPDELRVKLLLKRKLICYDGFEPSGRMHIAQGLLKSIIVNKLTSNGCTFIFWIADWFAHLNNKMSGDLKKIKKVGSYFIEVWKSCGMNMENVQFLWASEEINKKPNEYWSLVLDISRSFNINRMKRCLKIMGRSEGEENYCSQILYPCMQCADIFFLNVDICQLGIDQRKVNMLAREYCDIKKIKKKPVILSHGMLPGLLEGQEKMSKSDENSAIFMDDSESDVNRKIKKAYCPPNVIENNPIYAYAKSIIFPSYNEFNLVRKEKNGGDKTYYTLQELEHDYVNGFIHPLDLKDNVAMYINKLLQPVRDHFQNNIEAKNLLNEIKKYKVTK
notes: Tyrosyl-tRNA synthetase of Plasmodium falciparum, gene ID PF3D7-0807900, synthesized gene in pET28a; about 47 kDa on SDS-PAGE; No tag cleavage is described; The same protein was later captured on Ni-NTA biosensors for BLI with okanin, so the His tag was probably still present in the gel filtration; also called PfTyrRS; PfTysRS; source: E. coli BL21, purified (Ni-NTA, HiTrap Q HP, Superdex 200 …)
Take B1: the “stoichiometry N” value in data set [3] turned out to be 2.

B2: Homo sapiens tyrosyl-tRNA synthetase (enzyme, UniProt P54577 1-528, looked up)
chain: MGDAPSPEEKLHLITRNLQEVLGEEKLKEILKERELKIYWGTATTGKPHVAYFVPMSKIADFLKAGCEVTILFADLHAYLDNMKAPWELLELRVSYYENVIKAMLESIGVPLEKLKFIKGTDYQLSKEYTLDVYRLSSVVTQHDSKKAGAEVVKQVEHPLLSGLLYPGLQALDEEYLKVDAQFGGIDQRKIFTFAEKYLPALGYSKRVHLMNPMVPGLTGSKMSSSEEESKIDLLDRKEDVKKKLKKAFCEPGNVENNGVLSFIKHVLFPLKSEFVILRDEKWGGNKTYTAYVDLEKDFAAEVVHPGDLKNSVEVALNKLLDPIREKFNTPALKKLASAAYPDPSKQKPMAKGPAKNSEPEEVIPSRLDIRVGKIITVEKHPDADSLYVEKIDVGEAEPRTVVSGLVQFVPKEELQDRLVVVLCNLKPQKMRGVESQGMLLCASIEGINRQVEPLDPPAGSAPGEHVFVKGYEKGQPDEELKPKKKVFEKLQADFKISEECIAQWKQTNFMTKLGSISCKSLKGGNIS
notes: Tyrosyl-tRNA synthetase, human, in pET28a; about 64 kDa on SDS-PAGE; No tag cleavage is described; also called HsTyrRS; HsTysRS; source: E. coli, purified (Ni column, ion exchange Q HP, size exclusion chromatography)
With B2, the “stoichiometry N” value in data set [3] was found to be 2.
